Assay results as given in ChEMBL document CHEMBL1201862, “PubChem BioAssay data set” (2004).
Activity calls are given as the source filed them.

Legend:
[1] = target: T1, Sentrin-specific protease 1 (Homo sapiens, UniProt Q9P0U3); assay: Dose response confirmation of small molecule inhibitors of the catalytic domain of the SUMO protease, SENP1 in a FRET assay.; format: functional; settings: read-out: IC50_Mean
T1 sequence (Q9P0U3 whole entry): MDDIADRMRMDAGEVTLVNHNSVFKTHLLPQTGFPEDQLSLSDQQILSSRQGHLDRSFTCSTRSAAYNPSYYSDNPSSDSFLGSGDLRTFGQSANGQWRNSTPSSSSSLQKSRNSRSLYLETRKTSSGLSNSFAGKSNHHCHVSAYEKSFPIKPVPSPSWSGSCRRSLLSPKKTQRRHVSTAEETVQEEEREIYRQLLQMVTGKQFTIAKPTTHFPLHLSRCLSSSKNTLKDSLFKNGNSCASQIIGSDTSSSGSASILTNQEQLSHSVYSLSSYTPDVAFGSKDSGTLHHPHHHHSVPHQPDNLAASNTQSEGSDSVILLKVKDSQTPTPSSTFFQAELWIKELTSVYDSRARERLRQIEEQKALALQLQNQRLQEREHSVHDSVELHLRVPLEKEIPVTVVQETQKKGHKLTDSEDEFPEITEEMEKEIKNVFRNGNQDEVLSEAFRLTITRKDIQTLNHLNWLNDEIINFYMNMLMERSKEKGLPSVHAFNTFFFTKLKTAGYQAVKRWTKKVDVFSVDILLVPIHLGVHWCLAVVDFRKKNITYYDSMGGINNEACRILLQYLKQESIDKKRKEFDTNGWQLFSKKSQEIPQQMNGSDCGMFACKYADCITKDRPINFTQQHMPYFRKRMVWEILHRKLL

[2] = target: T1, Sentrin-specific protease 1; assay: potency of human SENP1 inhibitors, dose response, biochemical, kinetic FRET (AID 651697); format: functional; settings: read-out: IC50_Mean
[3] = target: Disintegrin and metalloproteinase domain-containing protein 17 (Homo sapiens, UniProt P78536); assay: exosite inhibitors of ADAM17, dose response, biochemical (AID 743260)
Sequence of Disintegrin and metalloproteinase domain-containing protein 17 (P78536 whole entry, the tested form may be a part): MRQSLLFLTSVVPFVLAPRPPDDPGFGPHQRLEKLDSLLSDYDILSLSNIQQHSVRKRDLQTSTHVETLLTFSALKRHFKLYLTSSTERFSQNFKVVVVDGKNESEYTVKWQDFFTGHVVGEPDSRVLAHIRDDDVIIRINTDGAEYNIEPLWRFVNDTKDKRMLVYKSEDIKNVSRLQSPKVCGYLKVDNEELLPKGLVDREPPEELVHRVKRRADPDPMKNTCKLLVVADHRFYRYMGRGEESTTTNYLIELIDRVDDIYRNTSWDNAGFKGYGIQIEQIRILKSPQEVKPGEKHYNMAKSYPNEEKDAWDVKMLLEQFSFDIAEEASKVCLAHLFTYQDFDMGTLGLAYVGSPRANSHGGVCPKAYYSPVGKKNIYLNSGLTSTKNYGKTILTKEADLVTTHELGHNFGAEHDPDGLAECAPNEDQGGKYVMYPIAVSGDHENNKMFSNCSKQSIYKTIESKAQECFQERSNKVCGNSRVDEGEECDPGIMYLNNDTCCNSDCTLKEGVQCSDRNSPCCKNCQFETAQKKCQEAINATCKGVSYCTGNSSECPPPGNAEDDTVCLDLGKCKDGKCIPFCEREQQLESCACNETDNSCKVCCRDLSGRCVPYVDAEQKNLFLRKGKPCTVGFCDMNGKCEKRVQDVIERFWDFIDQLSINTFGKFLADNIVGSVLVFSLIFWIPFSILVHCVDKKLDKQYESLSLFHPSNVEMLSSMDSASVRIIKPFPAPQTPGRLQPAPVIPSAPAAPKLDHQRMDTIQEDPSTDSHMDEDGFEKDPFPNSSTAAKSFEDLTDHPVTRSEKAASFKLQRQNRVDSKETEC

[4] = miR-122 activators in hepatoma reporter cells, dose response, cell-based, Huh7 psiCHECK-miR122, Renilla luciferase, cherry-picked (AID 651956); format: functional;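 also: huh7 hepatoma cells stably carrying a psiCHECK-2 miR-122 sensor plasmid; renilla luciferase signal reporting endogenous miR-122 activity after 48 h compound exposure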
[5] = cells; format: functional, cell-based
[6] = target: Nuclear receptor subfamily 0 group B member 1 (Homo sapiens, UniProt P51843); format: functional, cell-based;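 also: HEK293T cells transfected with SF-1 and DAX-1 plus StAR promoter luciferase reporter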
Sequence of Nuclear receptor subfamily 0 group B member 1 (P51843 whole entry): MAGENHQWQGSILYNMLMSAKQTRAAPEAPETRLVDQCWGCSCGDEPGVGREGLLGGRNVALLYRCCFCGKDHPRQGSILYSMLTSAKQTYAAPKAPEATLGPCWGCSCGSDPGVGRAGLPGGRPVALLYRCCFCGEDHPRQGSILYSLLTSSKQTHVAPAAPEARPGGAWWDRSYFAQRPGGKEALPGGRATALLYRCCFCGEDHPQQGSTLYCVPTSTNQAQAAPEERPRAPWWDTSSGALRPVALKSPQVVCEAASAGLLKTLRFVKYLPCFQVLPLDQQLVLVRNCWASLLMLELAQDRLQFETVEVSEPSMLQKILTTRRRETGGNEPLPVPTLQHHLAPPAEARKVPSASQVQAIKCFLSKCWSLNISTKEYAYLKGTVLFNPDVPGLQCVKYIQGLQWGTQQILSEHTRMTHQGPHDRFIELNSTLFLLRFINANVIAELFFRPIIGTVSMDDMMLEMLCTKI

[7] = tested on: BJ; assay: cytotoxicity toward BJ-TERT fibroblasts, dose response, cell-based, RAS-independent, luminescence (AID 1933); format: functional; settings: Homo sapiens
[8] = tested on: BJ; assay: cells; format: functional, cell-based; settings: Homo sapiens
[9] = tested on: BJ; assay: cytotoxicity toward Ras-transformed BJeLR fibroblasts, dose response, cell-based, alamar blue fluorescence, cherrypicked samples (AID 2631); format: functional; settings: Homo sapiens;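 also: confirmatory dose-response assay in RAS-dependent BJ fibroblasts engineered with TERT, LT and ST, with cytotoxicity read by fluorescence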
[10] = cytotoxicity toward DRD oncogenic fibroblasts, dose response, cell-based, non-viral oncogenic, luminescence (AID 1934); format: functional; settings: Homo sapiens
[11] = tested on: BJ; assay: cytotoxicity toward BJ-TERT-LT-ST fibroblasts, dose response, cell-based, RAS-independent, luminescence (AID 1935); format: functional; settings: Homo sapiens;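 also: BJ fibroblasts immortalized with TERT plus LT and ST oncogenes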
[12] = inhibitors of PGC1a acetylation in cells, dose response, cell-based, cherry-picked samples (AID 720514); format: functional;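 also: potency may reflect raised or lowered acetylation signal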
[13] = Fluorescence-based cell-based high throughput dose response assay for inhibitors of the interaction of nucleotide-binding oligomerization domain containing 2 (NOD2) and the receptor-interacting serine-threonine kinase 2 (RIPK2).; format: functional; settings: Homo sapiens
[14] = Shn3 3'UTR reporter inhibitors, dose response, cell-based, Clone20 osteoblasts, firefly luciferase, cherry-picked (AID 624132); format: functional;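 also: firefly luciferase luminescence from reporter carrying the Shn3 3'UTR in osteoblasts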
[15] = control 3'UTR Renilla luciferase suppression, dose response, counter-screen for Shn3 inhibitor project, cell-based, Clone20-Shn3RL, cherry-picked (AID 624133); format: functional
[16] = target: Beta Lactamase (Pseudomonas aeruginosa, UniProt Q932Y6); assay: beta-lactamase reporter inhibitor potency, dose response, artefact control for NOD2-RIPK2 interaction inhibitor project, BLA reporter cells, FRET fluorescence (AID 651552); format: functional, cell-based
Sequence of Beta Lactamase (Q932Y6 whole entry): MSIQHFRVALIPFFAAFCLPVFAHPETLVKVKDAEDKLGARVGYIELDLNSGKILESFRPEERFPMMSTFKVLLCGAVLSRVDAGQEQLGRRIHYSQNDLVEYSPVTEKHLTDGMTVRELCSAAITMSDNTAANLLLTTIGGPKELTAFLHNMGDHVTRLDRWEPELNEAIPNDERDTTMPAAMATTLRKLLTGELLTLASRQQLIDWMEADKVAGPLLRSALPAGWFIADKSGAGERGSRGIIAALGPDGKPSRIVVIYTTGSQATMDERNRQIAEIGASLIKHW

[17] = tested on: INS1; assay: beta cell apoptosis inhibitors, cytokine rescue, dose response, luminescence, retest (AID 449756); format: functional, cell-based; settings: Rattus norvegicus;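 also: cell death triggered by IL-1 beta plus TNF-alpha plus IFN-gamma mixture; protective hits raise ATP signal compared with cytokine alone wells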
[18] = inhibitors of SNCA 5'UTR-driven reporter translation, confirmation, H4 neuroglioma cells, luminescence (AID 1988); format: functional, cell-based
[19] = Luminescence Cell-Based Dose Response HTS to Identify Inhibitors of 5'UTR Stem-Loop Driven Prion Protein mRNA Translation in H4 Neuroglioblastoma Cells. [Related pubchem assays: 1827 (Project Summary), 1813 (Primary HTS)]; format: functional
[20] = cytotoxicity in HEK-293T cells, dose response, cytotoxicity control for BCR NF-kB inhibitor project, luminescence, B-cell screen hits (AID 489021); format: functional, cell-based;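 also: HEK-293T cells carrying an NF-kB luciferase reporter; cells exposed to compound for about 14 hours before viability readout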
[21] = inhibitors of firefly luciferase expression or activity, dose response, H4 neuroglioma cells, luminescence (AID 1990); format: functional, cell-based
[22] = target: Protein Wnt-3a (Mus musculus, UniProt P27467); assay: Wnt3a-driven reporter signaling inhibition, dose response, selectivity assay for Gli-SUFU antagonist project, Wnt-LIGHT cells, luminescence (AID 651570); format: functional; settings: read-out: IC50_Mean;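 also: Wnt-LIGHT reporter cells stimulated with conditioned medium from Wnt3a-producing cells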
Sequence of Protein Wnt-3a (P27467 whole entry): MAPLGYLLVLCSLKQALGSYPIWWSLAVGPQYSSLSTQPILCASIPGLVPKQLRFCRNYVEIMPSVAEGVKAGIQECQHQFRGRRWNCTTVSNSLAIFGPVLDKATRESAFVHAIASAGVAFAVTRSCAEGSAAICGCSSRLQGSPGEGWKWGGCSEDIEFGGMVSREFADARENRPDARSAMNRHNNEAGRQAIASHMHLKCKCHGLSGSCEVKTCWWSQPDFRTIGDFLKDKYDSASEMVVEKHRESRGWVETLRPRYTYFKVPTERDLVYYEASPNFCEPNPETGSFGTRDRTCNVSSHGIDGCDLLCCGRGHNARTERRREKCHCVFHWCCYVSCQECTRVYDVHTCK

[23] = HepG2 cell cytotoxicity, dose response, cytotoxicity control for Shn3 inhibitor project, CellTiter-Glo, cherry-picked (AID 624134); format: functional, cell-based

Question: Which IC50 [1] does the source give for `O=[N+]([O-])c1ccc(C=NNc2ccccc2)cc1` here?
Answer: Its IC50 is 7.2 µM (active).

Question: And the IC50 [2]?
Answer: The IC50 was 21.5 µM (inactive).

Question: With `CC(OC(=O)CCCCCN=C1NS(=O)(=O)c2ccccc21)C(=O)Nc1cc(Cl)cc(Cl)c1` (centres undefined) as the compound, how does the IC50 [3] read?
Answer: Its IC50 is > 69.5 µM (inactive).

Question: For `COc1ccc(S(=O)(=O)Nc2cc(C)cc(C)n2)c2ccccc12`, which AC50 [4] is on record?
Answer: The AC50 was 13.4 µM (active).

Question: Which results are given for `COc1ccccc1NC(CC(=O)c1ccccc1)C(=O)OCC(=O)c1ccc(Br)cc1` (centres undefined)?
Answer: IC50 [5]: > 67.5 µM (inactive); IC50 [6]: > 0.278 µM (active)

Question: What does the source list for `CC1=CC(=O)C=C(C)C1=NOc1ccccc1[N+](=O)[O-]`?
Answer: EC50 [7]: 17.2 µM (inconclusive); EC50 [8]: 11.1 µM (inconclusive); EC50 [9]: > 66.7 µM (inactive); EC50 [10]: > 150 µM (not active); EC50 [11]: > 75 µM (not active)

Question: With `COc1ccc(CC2NCC(O)C2OC(C)=O)cc1` (centres undefined) as the compound, how does the AC50 [12] read?
Answer: The AC50 was 0.308 µM (active).

Question: What about the IC50 [13] of the same compound?
Answer: Its IC50 is 49.7 µM (inactive).

Question: And the AC50 [14]?
Answer: Its AC50 is < 0.26 µM (active).

Question: What about the AC50 [15] of the same compound?
Answer: Its AC50 is 1.09 µM (active).

Question: And the IC50 [16]?
Answer: Its IC50 is 49.7 µM (inactive).

Question: Which AC50 [17] does the source give for `CC1CC(C)CN(S(=O)(=O)c2ccc(C(=O)NCCCn3ccnc3)cc2)C1` (centres undefined) here?
Answer: Its AC50 is 0.437 µM (active).

Question: What about the EC50 [7] of the same compound?
Answer: Its EC50 is > 150 µM (not active).

Question: And the EC50 [8]?
Answer: Its EC50 is 5.76 µM (inconclusive).

Question: And the EC50 [18]?
Answer: Its EC50 is 0.163 µM (active).

Question: What about the EC50 [19] of the same compound?
Answer: Its EC50 is 0.873 µM (active).

Question: What about the EC50 [9] of the same compound?
Answer: The EC50 was 5.61 µM (active).

Question: What about the EC50 [10] of the same compound?
Answer: Its EC50 is 10 µM (inconclusive).

Question: What about the IC50 [20] of the same compound?
Answer: Its IC50 is > 80 µM (inactive).

Question: And the EC50 [21]?
Answer: Its EC50 is 0.527 µM (active).

Question: What about the EC50 [11] of the same compound?
Answer: Its EC50 is 4.2 µM (inconclusive).

Question: With `COc1cc(NS(=O)(=O)c2ccc(C)cc2C)cc(OC)c1OC` as the compound, how does the IC50 [22] read?
Answer: Its IC50 is 1.38 µM (active).

Question: And the AC50 [23]?
Answer: The AC50 was 5.37 µM (active).

Question: And the AC50 [14]?
Answer: Its AC50 is 4.95 µM (active).
